Measurements: patent US9302999B2, “Substituted triazoles as herbicides” (E. I. DU PONT DE NEMOURS AND COMPANY, priority 2012, dated 2016)

How the values were obtained:
Assay type in all cases: in vivo
[1] = tested on: mustard, wild (wild mustard, Sinapis arvensis); assay: Test D pre-/postemergence: mustard, wild
Method in brief: (§1)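 Visual 0–100 rating versus untreated controls (0 no effect, 100 complete control), taken 14 to 21 days after treatment in a controlled growth environment. Preemergence: silt loam soil. Postemergence: peat moss/vermiculite medium, plants 2 to 18 cm, 1- to 4-leaf stage. Solvent mixture with surfactant.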

[2] = tested on: chamomile (scentless chamomile, Matricaria inodora); assay: Test D pre-/postemergence: chamomile
Method in brief: as §1

[3] = tested on: surinam grass (Brachiaria decumbens); assay: Test F pre-/postemergence: surinam grass; details: Preemergence
Method in brief: (§2)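 Visual response scores, 0 meaning no effect and 100 complete control, were assigned against untreated controls 14 to 21 days after treatment. Test chemicals in a surfactant-containing non-phytotoxic solvent were applied preemergence to seeded silt loam soil or postemergence to 2–18 cm plants in peat-based medium.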

soybean (Glycine max) = assay: Test F pre-/postemergence: soybean
Method in brief: as §2

[4] = tested on: nightshade (eastern black nightshade, Solanum ptycanthum); assay: Test F pre-/postemergence: nightshade; details: Preemergence
Method in brief: as §2

[5] = tested on: barley, spring (spring barley, Hordeum vulgare); assay: Test D pre-/postemergence: barley, spring
Method in brief: as §1

[6] = tested on: panicum, fall (fall panicum Panicum dichotomiflorum); assay: Test F pre-/postemergence: panicum, fall
Method in brief: as §2

[7] = tested on: ryegrass, Italian (Italian ryegrass, Lolium multiflorum); assay: Test F pre-/postemergence: ryegrass, Italian
Method in brief: as §2

[8] = tested on: johnsongrass (Sorghum halepense); assay: Test F pre-/postemergence: johnsongrass; details: Preemergence
Method in brief: as §2

[9] = Postemergence, 31 g ai/ha, scale 0 to 100 (0 no effect, 100 complete control)
[10] = Postemergence, 62 g ai/ha, scale 0 to 100 (0 no effect, 100 complete control)
[11] = Postemergence, 125 g ai/ha, scale 0 to 100, 0 no effect, 100 complete control
[12] = Postemergence, 16 g ai/ha, scale 0 to 100
[13] = Preemergence, 16 g ai/ha, scale 0 to 100, 0 no effect, 100 complete control
[14] = Preemergence, 31 g ai/ha, scale 0 to 100, 0 no effect, 100 complete control
[15] = Preemergence, 62 g ai/ha, scale 0 to 100
[16] = Preemergence, 125 g ai/ha, scale 0 to 100
[17] = Preemergence, 250 g ai/ha, scale 0 to 100
[18] = 8 g ai/ha, scale 0 to 100, 0 no effect, 100 complete control
[19] = 31 g ai/ha, scale 0 to 100, 0 no effect, 100 complete control
[20] = Postemergence, 8 g ai/ha, scale 0 to 100
[21] = Postemergence, 31 g ai/ha, scale 0 to 100
[22] = Postemergence, 62 g ai/ha, scale 0 to 100
[23] = Postemergence, 125 g ai/ha, scale 0 to 100
[24] = Preemergence, 8 g ai/ha, scale 0 to 100, 0 no effect, 100 complete control
[25] = 16 g ai/ha, scale 0 to 100, 0 no effect, 100 complete control

CCc1nn(-c2ccc(C(F)(F)F)cc2)nc1Cc1ccnc(C(F)(F)F)c1 [Compound 155]
Plant response rating: Mustard, Wild [1, 9]: 100
Plant response rating: Mustard, Wild [1, 10]: 100
Plant response rating: Mustard, Wild [1, 11]: 100
Plant response rating, Mustard, Wild [1, 12]: 80
Plant response rating, Mustard, Wild [1, 13]: 55
Plant response rating, Mustard, Wild [1, 14]: 55
Plant response rating, Mustard, Wild [1, 15]: 100
Plant response rating, Mustard, Wild [1, 16]: 100
Plant response rating: Chamomile [2, 9]: 70
Plant response rating: Chamomile [2, 10]: 80
Plant response rating: Chamomile [2, 11]: 85
Plant response rating, Chamomile [2, 12]: 60
Plant response rating, Chamomile [2, 13]: 5
Plant response rating, Chamomile [2, 14]: 80
Plant response rating, Chamomile [2, 15]: 95
Plant response rating, Chamomile [2, 16]: 100
Plant response rating, Surinam Grass ([3]; 125 g ai/ha, scale 0 to 100): 90
Plant response rating, Surinam Grass ([3]; 250 g ai/ha, scale 0 to 100): 90
Plant response rating, Soybean (soybean (Glycine max); [16]): 30
Plant response rating, Soybean (soybean (Glycine max); [17]): 30
Plant response rating, Nightshade ([4]; 125 g ai/ha, scale 0 to 100): 100
Plant response rating, Nightshade ([4]; 250 g ai/ha, scale 0 to 100): 100
Plant response rating: Barley, Spring [5, 9]: 15
Plant response rating: Barley, Spring [5, 10]: 25
Plant response rating: Barley, Spring [5, 11]: 35
Plant response rating, Barley, Spring [5, 12]: 10
Plant response rating, Barley, Spring [5, 13]: 0
Plant response rating, Barley, Spring [5, 14]: 5
Plant response rating, Barley, Spring [5, 15]: 5
Plant response rating, Barley, Spring [5, 16]: 10
Plant response rating, Panicum, Fall [6, 16]: 100
Plant response rating, Panicum, Fall [6, 17]: 100
Plant response rating, Ryegrass, Italian [7, 16]: 85
Plant response rating, Ryegrass, Italian [7, 17]: 95
Plant response rating, Johnsongrass ([8]; 62 g ai/ha, scale 0 to 100): 90
Plant response rating, Johnsongrass ([8]; 125 g ai/ha, scale 0 to 100): 90
Plant response rating, Johnsongrass ([8]; 250 g ai/ha, scale 0 to 100): 100

CCOc1nn(-c2ccc(F)cc2)nc1Cc1ccnc(C(F)(F)F)c1 [Compound 196, 4-[[5-ethoxy-2-(4-fluorophenyl)-2H-1,2,3-triazol-4-yl]methyl]-2-(trifluoromethyl)pyridine]
Plant response rating: Mustard, Wild [1, 9]: 100
Plant response rating: Mustard, Wild [1, 10]: 100
Plant response rating: Mustard, Wild [1, 11]: 100
Plant response rating, Mustard, Wild [1, 12]: 100
Plant response rating, Mustard, Wild [1, 13]: 35
Plant response rating, Mustard, Wild [1, 14]: 95
Plant response rating, Mustard, Wild [1, 15]: 100
Plant response rating, Mustard, Wild [1, 16]: 100
Plant response rating: Chamomile [2, 9]: 70
Plant response rating: Chamomile [2, 10]: 75
Plant response rating: Chamomile [2, 11]: 85
Plant response rating, Chamomile [2, 12]: 60
Plant response rating, Chamomile [2, 13]: 55
Plant response rating, Chamomile [2, 14]: 85
Plant response rating, Chamomile [2, 15]: 100
Plant response rating, Chamomile [2, 16]: 100
Plant response rating, Surinam Grass [3, 18]: 0
Plant response rating, Surinam Grass [3, 19]: 15
Plant response rating, Surinam Grass ([3]; 125 g ai/ha, scale 0 to 100): 100
Plant response rating, Soybean (soybean (Glycine max); [20]): 50
Plant response rating, Soybean (soybean (Glycine max); [12]): 60
Plant response rating, Soybean (soybean (Glycine max); [21]): 65
Plant response rating, Soybean (soybean (Glycine max); [22]): 70
Plant response rating, Soybean (soybean (Glycine max); [23]): 80
Plant response rating, Soybean (soybean (Glycine max); [24]): 0
Plant response rating, Soybean (soybean (Glycine max); [13]): 0
Plant response rating, Soybean (soybean (Glycine max); [14]): 20
Plant response rating, Soybean (soybean (Glycine max); [16]): 35
Plant response rating, Nightshade [4, 18]: 95
Plant response rating, Nightshade [4, 25]: 95
Plant response rating, Nightshade [4, 19]: 95
Plant response rating, Nightshade ([4]; 125 g ai/ha, scale 0 to 100): 100
Plant response rating: Barley, Spring [5, 9]: 20
Plant response rating: Barley, Spring [5, 10]: 35
Plant response rating: Barley, Spring [5, 11]: 55
Plant response rating, Barley, Spring [5, 12]: 15
Plant response rating, Barley, Spring [5, 13]: 5
Plant response rating, Barley, Spring [5, 14]: 5
Plant response rating, Barley, Spring [5, 15]: 15
Plant response rating, Barley, Spring [5, 16]: 30
Plant response rating, Panicum, Fall [6, 20]: 20
Plant response rating, Panicum, Fall [6, 12]: 40
Plant response rating, Panicum, Fall [6, 21]: 80
Plant response rating, Panicum, Fall [6, 22]: 85
Plant response rating, Panicum, Fall [6, 23]: 85
Plant response rating, Panicum, Fall [6, 24]: 25
Plant response rating, Panicum, Fall [6, 14]: 98
Plant response rating, Panicum, Fall [6, 16]: 100
Plant response rating, Ryegrass, Italian [7, 20]: 15
Plant response rating, Ryegrass, Italian [7, 12]: 20
Plant response rating, Ryegrass, Italian [7, 21]: 40
Plant response rating, Ryegrass, Italian [7, 22]: 70
Plant response rating, Ryegrass, Italian [7, 23]: 80
Plant response rating, Ryegrass, Italian [7, 24]: 0
Plant response rating, Ryegrass, Italian [7, 13]: 40
Plant response rating, Ryegrass, Italian [7, 14]: 75
Plant response rating, Ryegrass, Italian [7, 16]: 100
Plant response rating, Johnsongrass [8, 25]: 65
Plant response rating, Johnsongrass [8, 19]: 65
Plant response rating, Johnsongrass ([8]; 62 g ai/ha, scale 0 to 100): 95
Plant response rating, Johnsongrass ([8]; 125 g ai/ha, scale 0 to 100): 98
